Results from patent publication US20040023884A1, “Biologically active peptides from functional domains of bactericidal/permeability-increasing protein and uses thereof” (priority 1993, published 2004).
Ends that are not written are not given here.

What was measured:
[1] = test system: E. coli 0111:B4 (smooth) bacteria; experiment: Radial diffusion bactericidal assay, E. coli 0111:B4; format: cell-based; conditions: for pmol added to well to achieve a 30 mm^2 bactericidal zone, E. coli O111:B4: radial diffusion, PROBIT analysis, E. coli O111:B4 (smooth)
E. coli 0113 LPS = experiment: Limulus Amoebocyte Lysate (LAL) inhibition assay; format: biochemical
Procedure: BPI proteolytic fragments produced according to Example 1 were subjected to a Limulus Amoebocyte Lysate (LAL) inhibition assay to determine LPS binding properties of these fragments. Specifically, each of the fragments were mixed in Eppendorf tubes with a fixed concentration of E. coli 0113 LPS (4 ng/mL final concentration) and incubated at 37° C. for 3 hours with occasional shaking. Addition controls comprising rBPI23 at 0.05 μg/mL were also tested. Following incubation, 360 μL of Dulbecco's phosphate buffered saline (D-PBS; Grand Island Biological Co. (GIBCO), Long Island, N.Y.) were added per tube to obtain an LPS concentration of 200 pg/mL for the LAL assay. Each sample was then transferred into Immulon II strips (Dynatech, Chantilly, Va.) in volumes of 50 μl per well.
Limulus amoebocyte Lysate (Quantitative Chromogenic LAL kit, Whitaker Bioproducts, Inc., Walkersville, Md.) was added at 50 μL per well and the wells were incubated at room temperature for 25 minutes. Chromogenic substrate was then added at a volume of 100 μL per well and was well mixed. After incubation for 20 to 30 minutes at room temperature, the reaction was stopped with addition of 100 μL of 25% (v/v) acetic acid. Optical density at 405 nm was then measured in a multiplate reader (Model Vmax, […], Menlo Park, Calif.) with the results shown in FIG. 2 in terms of percent inhibition of LPS. In this Figure, the filled circle represents rBPI23; the open circle represents Asp-N fragment A3; the x represents Asp-N fragment A2, the filled square represents Asp-N fragment A4; the filled triangle represents Asp-N fragment A1A2; the open square represents Asp-N fragment A6a; the small open triangle represents CNBr fragment C3; and the small filled square represents CNBr fragment C1/C5.

[2] = 3H-heparin binding assay (affinity and capacity); conditions: for Heparin Capacity: heparin bound at saturation; for Kd: read-out: Heparin Affinity; for cpm ^3H-Heparin bound: 100 picomoles of each fragment per well, saturating 3H-heparin 20 μg/mL, mean of duplicate wells ± range
In short: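 Peptide fragments were bound to PVDF-membrane wells and incubated with 3H-heparin in blocking buffer for 1 h at 4 °C. After washing, bound radioactivity was quantified by liquid scintillation counting, with BSA background subtracted; rBPI23 served as positive control.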

[3] = test system: rough mutant E. coli J5 bacteria; experiment: Radial diffusion bactericidal assay, E. coli J5; format: cell-based; conditions: for pmol added to well to achieve a 30 mm^2 bactericidal zone, E. coli J5: radial diffusion, PROBIT analysis, E. coli J5 (rough)
In short: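 Wells received 5 or 10 μL of BPI fragment, pre-incubated 3 h at 37 °C. The underlayer agarose carried washed log-phase organisms at 4×10^6 CFU/mL.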

RAW 264.7 cells = experiment: LPS neutralization cellular proliferation assay, RAW 264.7 cells; format: cell-based, mouse
In short: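 Mouse RAW 264.7 cells were primed 24 h with 50U/mL mouse γ-interferon, then exposed about 15 h to E. coli O113 LPS in serum-free RPMI with or without BPI peptides at 25 ng/mL–50 μg/mL. Proliferation was quantified by [^3H]-thymidine uptake, 1 μCi/well, added at 5 h.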

Staphylococcus aureus = experiment: Radial diffusion bactericidal assay, Staphylococcus aureus; format: cell-based; conditions: S. aureus; for pmol added to well to achieve a 30 mm^2 bactericidal zone, S. aureus: radial diffusion, PROBIT analysis
C. albicans = experiment: Radial diffusion fungicidal assay, Candida albicans; format: cell-based; conditions: radial diffusion
Candida albicans = format: cell-based

| Molecule | pmol added to well to achieve a 30 mm^2 bactericidal zone, E. coli O111:B4 [1] | Heparin Capacity [2] | Kd [2] | pmol added to well to achieve a 30 mm^2 bactericidal zone, E. coli J5 [3] | IC50 (peptide concentration at which RAW cell growth was inhibited by 50%) (RAW 264.7 cells) | pmol added to well to achieve a 30 mm^2 bactericidal zone, S. aureus (Staphylococcus aureus) | C. albicans: pmol required for 30 mm^2 zone (C. albicans) | EC50 (peptide concentration at which the growth inhibitory effect of LPS was reversed by 50%) (RAW 264.7 cells) | also measured |
| --- | --- | --- | --- | --- | --- | --- | --- | --- | --- |
| IKISAKWKAQKRFLK [BPI.19] | b (no detectable activity up to 5 μg/well) | 203.6 ng | 266 nM | 2,187.80 pmol | – | – | – | – | LAL (relative difference) (E. coli 0113 LPS; alanine variant relative to BPI.2): = (no difference in the LAL assay); HEPCAP (x Fold change in activity) ([2]; heparin binding capacity, relative to BPI.2): =1.0 x Fold |
| KSKVGWLIFLFHKK [BPI.91] | b (no detectable activity up to 5 μg/well) | 181.2 ng | 288 nM | 21,014.73 pmol | — (No proliferation decrease up to 50 μg/ml) | b (no detectable activity up to 5 μg/well) | >3843.54 pmol | – | – |
| KSKVGWLILLFHKK [BPI.86] | b (no detectable activity up to 5 μg/well) | 208.4 ng | 383 nM | 1,519.64 pmol | – | 459,138.55 pmol | >2048.45 pmol | 0.13 ± 0.04 µg/mL | – |
| KSKVGWLIQLFHKF [BPI.96] | 8,691.85 pmol | 203.8 ng | 469 nM | 378.33 pmol | 18.8 ± 0.8 µg/mL | 91,585.37 pmol | 1856.08 pmol | 1.6 ± 0.2 µg/mL | – |
| KSKVGWLIQLFHKKKWKAQKRFLK [BPI.74] | 30,610.36 pmol | 207.3 ng | 218 nM | 731.94 pmol | 18.8 ± 0.8 µg/mL | 4,290.18 pmol | >2148.21 pmol | 2.7 ± 0.3 µg/mL | fold lower bactericidal activity than BPI.30 ([1]; E. coli 0111:B4): 50 fold; fold increase in heparin affinity vs BPI.30 [2]: 2 fold; fold reduction in heparin binding capacity vs BPI.30 [2]: 2 fold; fold lower bactericidal activity than BPI.30 (Staphylococcus aureus): 3.5 fold; fold lower bactericidal activity than BPI.30 ([3]; E. coli J5): 10 fold |
| KSKVGWLIQLWHKK [BPI.82] | 3,681.30 pmol | 163.1 ng | 427 nM | 171.32 pmol | 18.8 ± 0.8 µg/mL | 11,027.00 pmol | 518.43 pmol | 0.8 ± 0.1 µg/mL | MIC C. alb (Candida albicans): 3.13 µg/mL |
| A6a: Asp-N fragment of rBPI23, residues 116-193 (protein) IKISGKWKAQKRFLKMSGNFDLSIEGMSISADLKLGSNPTSGKPTITCSSCSSHINSVHVHISKSKVGWLIQLFHKKI | – | – | – | – | – | – | – | – | LAL / LPS inhibition activity (in words) (E. coli 0113 LPS): LAL inhibitory activity similar to intact rBPI23; concentration giving complete inhibition of the LPS-induced LAL reaction (E. coli 0113 LPS): 15 nM; cpm ^3H-Heparin bound [2]: 13,419 ± 309 cpm |
| C1,C5: unresolved mixture of CNBr fragments of rBPI23, residues 1-56 and 112-170 (protein, non-natural residues) chain 1: MRENMARGPCNAPRWVSLMVLVAIGTAVTAAVNPGVVVRISQKGLDYASQQGTAAL chain 2: SNANIKISGKWKAQKRFLKMSGNFDLSIEGMSISADLKLGSNPTSGKPTITCSSCSSHI | – | – | – | – | – | – | – | – | IC50 relative to intact rBPI23 (fold higher) (E. coli 0113 LPS): approximately 10 fold; IC50 (E. coli 0113 LPS; read-out: IC50 of inhibition of the LPS-induced LAL reaction): ~100 nM; cpm ^3H-Heparin bound [2]: 82,918 ± 4,462 cpm |
